{
  "source": "patent US10604739B2",
  "about": "“Cardiomyocyte production” (Cellular Dynamics International, Inc., priority 2009, dated 2020)",
  "type_in_all_cases": "cell-based, human",
  "key": {"iPS6.1 cells [1]": {"tested_on": "iPS6.1 cells", "experiment": "iPS6.1 Four Corners experiment, FGF x HGF cardiac induction", "description": "(§1) Aggregate formation and cardiac induction procedures of those iPS cells at different initial densities were performed essentially the same as described in Examples 4 except different concentrations of human HGF (hHGF) and FGF were applied to Aggregate Formation Medium, Aggregate Transition Medium and Cardiac Induction Medium.\nConcurrent with the second iPS growth factor titration, a simple experiment (Table 19) was set up with iPS6.1 cells to test the 2×2 matrix of 0 and 25 ng/mL FGF and 0 and 50 ng/mL HGF. The positive concentrations of FGF and HGF were chosen based on the current best practices for iPS6.1 cells at the time and were identical to the conditions used for cardiac induction of H1 cells in both the plated and suspension processes. This experiment confirmed previous work showing the necessity of FGF for the process."}, "iPS6.1-MRB cells": {"tested_on": "iPS6.1-MRB cells", "experiment": "iPS-MRB 1 L spinner qualification runs with and without HGF", "details": "for CM/L (millions) / Purity (% RFP+): +HGF, 1 L spinner flask", "description": "IPS-MRB cells were maintained on Matrigel™ in TeSR medium (from Stem Cell Technologies) no later than when they would normally be ready to be passaged. IPS cells were grown in T-150 flasks throughout this example, but can be scaled for starting cells in other culture formats. Five T-150 flasks of iPS cells were harvested: media were aspirated and cells were incubated with 12 mL room temperature TrypLe™ (Invitrogen), a recombinant typsin-like enzyme, at 37° C. for 7 minutes. The cells were then transferred to five 50 ml conical tubes (one tube for each T-150 flask) containing 12 ml DMEM/F12 (GIBCO) with 10% fetal calf serum (FCS) (Chemicon). The cells were then pelleted at 1200 rpm for 5 minutes and supernatant aspirated. The pellet was resuspended in 10 mL aggregate promotion medium (TeSR medium containing 25 μg/ml Gentamicin, 1 μM H1152, and with or without 50 ng/ml human recombinant HGF). The resuspended pellet were combined into a single 250 ml conical tube (allowing volume for later dilution), if necessary. Cells were counted using CEDEX HiRES cell counter and then diluted to 1.0×10^6 cells/mL. Each 500 mL diluted cell stock was dispensed into one 1 L spinner flask (leaving room in spinner flasks for later dilution) and the flasks were placed on magnetic stir platform with a speed of 50 RPM (both side caps were loosed by two full turns to allow gas transfer).\nOn the next day (Day 1), flasks containing the cells were set in cell culture hood and suspended aggregate allowed to settle to the bottom of the flasks for 30 minutes. The spent media were aspirated using a 2 mL aspirating pipet with approximately 100 mL left in the flasks (if films of cells form on bottom after setting, shake flask back and forth in each direction to break them up before adding medium). Aggregate transition medium (50% TeSR medium, 45% DMEM containing GlutaMax™, 5% ES-qualified FCS, 25 μg/ml Gentamicin, 1 μM H1152, and with or without 50 ng/ml HGF) were added to the flasks using Pipeline machine to bring to the original volume. The flasks were returned to the stirring platform inside a 7% CO2 incubator and the agitator was started to operate at 50±1 RPM (both side caps were loosed by two full turns to allow gas transfer).\nOn Day 2, flasks containing the cells were set in cell culture hood and suspended aggregate allowed to settle to the bottom of the flasks for 15 minutes. The spent media were aspirated with approximately 100 mL left in the flasks. Aggregate suspension were gently mixed in flasks, and cardiac induction medium (90% TeSR medim, 10% ES-qualified FCS, 25 μg/ml Gentamicin, 50 ng/ml human recombinant bFGF, and with or without 50 ng/ml human recombinant HGF) were added to each flask to 1 L (2× dilution) with Pipeline machine. The flasks were returned to the stirring platform inside a 7% CO2 incubator and the agitator was started to operate at 50±1 RPM (both side caps were loosed by two full turns to allow gas transfer).\nOn Day 3, flasks containing the cells were set in cell culture hood and suspended aggregate allowed to settle to the bottom of the flasks for 15 minutes. The spent media were aspirated with approximately 100 mL left in the flasks. Spinner flasks were shaken back and forth to break large clumps. Cardiac induction medium were added back to each flask to bring back to the original volume for Days 3-7; cardiac maintenance medium were exchanged instead for Days 8, 10, 12. After every media exchange, the flasks were returned to the stirring platform inside a 7% CO2 incubator and the agitator was started to operate at 50±1 RPM (both side caps were loosed by two full turns to allow gas transfer).\nCell cultures were analyzed on Day 14 by total cell counting per flask at harvest, cTNT or RFP purity at harvest. Aggregate count was also carried on Day 2 and final stage and aggregate pictures were taken.\nThree qualification runs were performed to confirm at large scale and with iPS6.1-MRB cells that removal of HGF has no measurable effect. […]"}, "iPS6.1 cells [2]": {"tested_on": "iPS6.1 cells", "experiment": "iPS6.1 Growth Factor Titration #1", "details": "HGF 0, 5, 20, 50, 150 ng/mL", "description": "as §1\nConditions without FGF had virtually no surviving aggregates and no measurable cardiomyocytes (FIGS. 29A-B). On the other hand, all conditions with FGF yielded cardiomyocytes independent of HGF concentration (FIGS. 29A-B)."}, "H9-TGZ cells": {"tested_on": "H9-TGZ cells", "experiment": "H9-TGZ Growth Factor Titration #2", "details": "HGF 0, 20, 50", "description": "as §1\nWhile the iPS6.1 optimization was underway, a separate series of experiments was conducted to optimize the growth factor concentrations for the H9-TGZ cells. […] Therefore, the FGF range tested was higher than that in the recent iPS6.1 experiments. This experiment confirmed that optimum cardiomyocyte production requires 100-150 ng/mL FGF with the H9-TGZ cells (FIGS. 31A-C)."}, "iPS6.1 cells [3]": {"tested_on": "iPS6.1 cells", "experiment": "iPS6.1 Growth Factor Titration #2", "details": "HGF 0, 20, 50 ng/mL, best performing FGF concentration conditions", "description": "as §1\nBased on the results of the first experiment (see FIGS. 29A-B), the second iPS6.1 growth factor titration focused on the lower dose range for both FGF and HGF (FIGS. 30A-B). […] However, it is important to note that in no case did the omission of HGF lead to the failure of a condition which was otherwise successful in the presence of HGF."}},
  "note": "Several values for one entry are separate records, joined by “and”; a condition that tells them apart may be missing. Identical values can stand only once.",
  "data": [
    {"substance": "HGF: human recombinant HGF (hepatic growth factor), R&D systems", "values": [
      {"measurement": "input iPS:CM", "setting": "iPS6.1 cells [1]; iPS6.1 cells, 25 ng/mL FGF and/or 50 ng/mL HGF, single T25 flask, day 14", "result": 6725},
      {"measurement": "% cTNT+", "setting": "iPS6.1 cells [1]; iPS6.1 cells, 25 ng/mL FGF and/or 50 ng/mL HGF, single T25 flask, day 14, listed as HGF only", "result": "0% and 1.5% and 7%"},
      {"measurement": "Overall culture efficiency", "setting": "iPS6.1 cells [1]; inclusion of HGF (50 ng/mL) together with FGF (25 ng/mL) versus FGF alone", "result": "reduced overall culture efficiency"},
      {"measurement": "Effect of HGF addition on yields", "setting": "iPS6.1-MRB cells; \"normal\" run, 1 L spinner", "result": "no effect"},
      {"measurement": "CM/L (millions)", "setting": "iPS6.1-MRB cells; Run #1 (Jun. 6, 2009)", "result": 48.9, "unit": "millions"},
      {"measurement": "Purity (% RFP+)", "setting": "iPS6.1-MRB cells; Run #1 (Jun. 6, 2009)", "result": 6.6, "unit": "%"},
      {"measurement": "CM/L (millions)", "setting": "iPS6.1-MRB cells; Run #2 (Jun. 10, 2009)", "result": 17.5, "unit": "millions"},
      {"measurement": "Purity (% RFP+)", "setting": "iPS6.1-MRB cells; Run #2 (Jun. 10, 2009)", "result": 3.7, "unit": "%"},
      {"measurement": "CM/L (millions)", "setting": "iPS6.1-MRB cells; Run #3 (Jun. 14, 2009)", "result": 10.0, "unit": "millions"},
      {"measurement": "Purity (% RFP+)", "setting": "iPS6.1-MRB cells; Run #3 (Jun. 14, 2009)", "result": 2.6, "unit": "%"},
      {"measurement": "Trend in cardiomyocyte yield or iPS:CM ratio across HGF concentrations", "setting": "iPS6.1 cells [2]", "result": "no consistent trend in cardiomyocyte yield or iPS:CM ratio"},
      {"measurement": "Trend in process efficiency across different HGF concentrations", "setting": "H9-TGZ cells", "result": "No trend was observed in process efficiency"},
      {"measurement": "Trend of productivity with HGF concentration", "setting": "iPS6.1 cells [3]", "result": "productivity increased with higher HGF concentrations"}
    ]}
  ]
}
